Results as given in patent US12139520B2 (priority 2020, dated 2024).
Numbered stars: 1 amine (or outer) side, 2 acyl side, 3 side chain; on linkers, the order of the positions; unused ones are H or OH. Bridge positions count the residues as written; N and C are the ends. Peptide text beside a SMILES is read from it. * marks the point of attachment. C20 diacid = O=C(O)CCCCCCCCCCCCCCCCCCC(=O)*; γGlu = O=C(O)[C@H](CCC(=O)[*:2])N[*:1]

Target: T1, hAMY3 receptor (Homo sapiens, UniProt O60896+P30988)
T1 sequence (P30988 25-474): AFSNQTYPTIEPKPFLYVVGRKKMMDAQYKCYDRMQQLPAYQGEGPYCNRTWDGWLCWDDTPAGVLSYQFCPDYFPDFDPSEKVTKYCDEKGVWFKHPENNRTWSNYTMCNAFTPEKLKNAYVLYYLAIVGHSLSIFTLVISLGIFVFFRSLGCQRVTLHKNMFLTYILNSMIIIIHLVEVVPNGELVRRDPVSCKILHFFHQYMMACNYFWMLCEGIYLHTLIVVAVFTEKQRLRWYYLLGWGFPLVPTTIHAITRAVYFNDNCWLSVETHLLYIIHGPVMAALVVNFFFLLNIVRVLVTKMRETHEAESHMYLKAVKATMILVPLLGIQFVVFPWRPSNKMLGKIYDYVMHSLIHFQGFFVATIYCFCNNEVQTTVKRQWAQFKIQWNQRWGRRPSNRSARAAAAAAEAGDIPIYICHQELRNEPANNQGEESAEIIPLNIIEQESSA
T1 sequence (O60896 24-148 partner): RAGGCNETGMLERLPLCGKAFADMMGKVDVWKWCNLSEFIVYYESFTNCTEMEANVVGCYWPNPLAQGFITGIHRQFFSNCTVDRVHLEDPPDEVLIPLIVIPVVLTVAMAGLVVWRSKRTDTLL
Assay: cAMP assay for in vitro receptor activation, hAMY3-R
Type: cell-based
Conditions: cAMP assay, hAMY3 receptor; read-out: hAMY3R EC50
Summary of the method: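 Receptor activation was measured as cAMP accumulation in a monoclonal cell line stably overexpressing hAMY3. Stimulation with graded doses lasted 30 min at room temperature in the presence of 0.5 mM IBMX, with human amylin as positive control.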

Row | SMILES | EC50 [nM]
1 | CC[C@H](C)[C@H](NC(=O)[C@H](CCC(N)=O)NC(=O)[C@H](Cc1c[nH]cn1)NC(=O)[C@H](C)NC(=O)[C@H](CC(C)C)NC(=O)[C@H](CCCNC(=N)N)NC(=O)[C@H](CCC(N)=O)NC(=O)[C@@H](NC(=O)[C@@H](NC(=O)[C@@H]1CSSC[C@H](NC(=O)CN)C(=O)N[C@@H](CCCNC(=N)N)C(=O)N[C@@H](Cc2ccccc2)C(=O)NCC(=O)N[C@@H]([C@@H](C)O)C(=O)N1)[C@@H](C)O)C(C)C)C(=O)N[C@@H](Cc1ccc(O)cc1)C(=O)N[C@@H](CCC(N)=O)C(=O)N[C@@H](Cc1ccccc1)C(=O)N[C@H](C(=O)N[C@@H](CC(=O)O)C(=O)N[C@@H](CCCCN)C(=O)N[C@@H](CC(=O)O)C(=O)N[C@@H](CCCCN)C(=O)N[C@@H](CC(=O)O)C(=O)N[C@@H](CC(N)=O)C(=O)N[C@H](C(=O)N[C@@H](C)C(=O)N1CCC[C@H]1C(=O)N[C@@H](CCCNC(=N)N)C(=O)N[C@H](C(=O)N[C@@H](CCCCN)C(=O)N[C@H](C(=O)N[C@@H](CO)C(=O)N1CCC[C@H]1C(=O)N[C@@H](CC(N)=O)C(=O)NCC(=O)N[C@@H](Cc1ccc(O)cc1)C(N)=O)[C@@H](C)CC)[C@@H](C)O)C(C)C)[C@@H](C)O [compound 371] (H-GCRFGTCTVQRLAHQIYQFTDKDKDNVAPRTKISPNGY-NH2; disulfide 2-7; N-terminus assumed) | 0.019
2 | CC[C@H](C)[C@H](NC(=O)[C@H](CCC(N)=O)NC(=O)[C@H](CC(N)=O)NC(=O)[C@H](C)NC(=O)[C@H](CC(C)C)NC(=O)[C@H](CCCNC(=N)N)NC(=O)[C@H](CCC(N)=O)NC(=O)[C@@H](NC(=O)[C@@H](NC(=O)[C@@H]1CSSC[C@H](NC(=O)CNC(=O)CC[C@H](NC(=O)CCCCCCCCCCCCCCCCCCC(=O)O)C(=O)O)C(=O)N[C@@H](CCCNC(=N)N)C(=O)N[C@@H](Cc2ccccc2)C(=O)NCC(=O)N[C@@H]([C@@H](C)O)C(=O)N1)[C@@H](C)O)C(C)C)C(=O)N[C@@H](Cc1ccc(O)cc1)C(=O)N[C@@H](CCC(N)=O)C(=O)N[C@@H](Cc1ccccc1)C(=O)N[C@H](C(=O)N[C@@H](CC(=O)O)C(=O)N[C@@H](CCCCN)C(=O)N[C@@H](CC(=O)O)C(=O)N[C@@H](CCCCN)C(=O)N[C@@H](CC(=O)O)C(=O)N[C@@H](CC(N)=O)C(=O)N[C@H](C(=O)N[C@@H](C)C(=O)N1CCC[C@H]1C(=O)N[C@@H](CCCNC(=N)N)C(=O)N[C@H](C(=O)N[C@@H](CC(N)=O)C(=O)N[C@H](C(=O)NCC(=O)N1CCC[C@H]1C(=O)N[C@@H](CCC(N)=O)C(=O)NCC(=O)N[C@@H](Cc1ccc(O)cc1)C(N)=O)C(C)C)[C@@H](C)O)C(C)C)[C@@H](C)O [compound 372] ({C20 diacid-γGlu}-GCRFGTCTVQRLANQIYQFTDKDKDNVAPRTNVGPQGY-NH2; disulfide 2-7) | 0.02
3 | CC[C@H](C)[C@H](NC(=O)[C@H](CCC(N)=O)NC(=O)[C@H](Cc1c[nH]cn1)NC(=O)[C@H](C)NC(=O)[C@H](CC(C)C)NC(=O)[C@H](CCCNC(=N)N)NC(=O)[C@H](CCC(N)=O)NC(=O)[C@@H](NC(=O)[C@@H](NC(=O)[C@@H]1CSSC[C@H](NC(=O)CN)C(=O)N[C@@H](CCCNC(=N)N)C(=O)N[C@@H](Cc2ccccc2)C(=O)NCC(=O)N[C@@H]([C@@H](C)O)C(=O)N1)[C@@H](C)O)C(C)C)C(=O)N[C@@H](Cc1ccc(O)cc1)C(=O)N[C@@H](CCC(N)=O)C(=O)N[C@@H](Cc1ccccc1)C(=O)N[C@H](C(=O)N[C@@H](CC(=O)O)C(=O)N[C@@H](CCCCN)C(=O)N[C@@H](CC(=O)O)C(=O)N[C@@H](CCCCN)C(=O)N[C@@H](CC(=O)O)C(=O)N[C@@H](CC(N)=O)C(=O)N[C@H](C(=O)N[C@@H](C)C(=O)N1CCC[C@H]1C(=O)N[C@@H](CCCNC(=N)N)C(=O)N[C@@H](CO)C(=O)N[C@@H](CCCCN)C(=O)N[C@H](C(=O)NCC(=O)N1CCC[C@H]1C(=O)N[C@@H](CCC(N)=O)C(=O)NCC(=O)N[C@@H](Cc1ccc(O)cc1)C(N)=O)C(C)C)C(C)C)[C@@H](C)O [compound 375] (H-GCRFGTCTVQRLAHQIYQFTDKDKDNVAPRSKVGPQGY-NH2; disulfide 2-7; N-terminus assumed) | 0.022
4 | CC(C)C[C@H](NC(=O)[C@H](CCCNC(=N)N)NC(=O)[C@H](CCC(N)=O)NC(=O)[C@@H](NC(=O)[C@@H](NC(=O)[C@@H]1CSSC[C@H](NC(=O)CN)C(=O)N[C@@H](CCCNC(=N)N)C(=O)N[C@@H](Cc2ccccc2)C(=O)N[C@@H](C)C(=O)N[C@@H]([C@@H](C)O)C(=O)N1)[C@@H](C)O)C(C)C)C(=O)N[C@@H](C)C(=O)N[C@@H](Cc1c[nH]cn1)C(=O)N[C@@H](Cc1ccccc1)C(=O)N[C@@H](CC(C)C)C(=O)N[C@@H](Cc1ccc(O)cc1)C(=O)N[C@@H](CCC(N)=O)C(=O)N[C@@H](Cc1ccccc1)C(=O)N[C@H](C(=O)N[C@@H](CC(=O)O)C(=O)N[C@@H](CCCCN)C(=O)N[C@@H](CC(=O)O)C(=O)N[C@@H](CCCCN)C(=O)N[C@@H](CC(=O)O)C(=O)N[C@@H](CC(N)=O)C(=O)N[C@H](C(=O)N[C@@H](C)C(=O)N1CCC[C@H]1C(=O)N[C@@H](CCCNC(=N)N)C(=O)N[C@H](C(=O)N[C@@H](CCCCN)C(=O)N[C@H](C(=O)NCC(=O)N1CCC[C@H]1C(=O)N[C@@H](CCC(N)=O)C(=O)NCC(=O)N[C@@H](Cc1ccc(O)cc1)C(N)=O)C(C)C)[C@@H](C)O)C(C)C)[C@@H](C)O [compound 377] (H-GCRFATCTVQRLAHFLYQFTDKDKDNVAPRTKVGPQGY-NH2; disulfide 2-7; N-terminus assumed) | 0.024
5 | CC[C@H](C)[C@H](NC(=O)[C@H](CCC(N)=O)NC(=O)[C@H](Cc1c[nH]cn1)NC(=O)[C@H](C)NC(=O)[C@H](CC(C)C)NC(=O)[C@H](CCCNC(=N)N)NC(=O)[C@H](CCC(N)=O)NC(=O)[C@@H](NC(=O)[C@@H](NC(=O)[C@@H]1CSSC[C@H](NC(=O)[C@H](CCCCN)NC(=O)CC[C@H](NC(=O)CCCCCCCCCCCCCCCCCCC(=O)O)C(=O)O)C(=O)N[C@@H](CC(N)=O)C(=O)N[C@@H](Cc2ccccc2)C(=O)N[C@@H](C)C(=O)N[C@@H]([C@@H](C)O)C(=O)N1)[C@@H](C)O)C(C)C)C(=O)N[C@@H](Cc1ccc(O)cc1)C(=O)N[C@@H](CCC(N)=O)C(=O)N[C@@H](Cc1ccccc1)C(=O)N[C@H](C(=O)N[C@@H](CC(=O)O)C(=O)N[C@@H](CCCCN)C(=O)N[C@@H](CC(=O)O)C(=O)N[C@@H](CCCCN)C(=O)N[C@@H](CC(=O)O)C(=O)N[C@@H](CC(N)=O)C(=O)N[C@H](C(=O)N[C@@H](C)C(=O)N1CCC[C@H]1C(=O)N[C@@H](CCCNC(=N)N)C(=O)N[C@H](C(=O)N[C@@H](CCCCN)C(=O)N[C@H](C(=O)NCC(=O)N[C@@H](CO)C(=O)N[C@@H](CC(N)=O)C(=O)NCC(=O)N[C@@H](Cc1ccc(O)cc1)C(N)=O)C(C)C)[C@@H](C)O)C(C)C)[C@@H](C)O [compound 378] ({C20 diacid-γGlu}-KCNFATCTVQRLAHQIYQFTDKDKDNVAPRTKVGSNGY-NH2; disulfide 2-7) | 0.027
6 | CC[C@H](C)[C@H](NC(=O)[C@H](CC(N)=O)NC(=O)[C@@H](NC(=O)[C@H](CCCNC(=N)N)NC(=O)[C@@H]1CCCN1C(=O)[C@H](C)NC(=O)[C@@H](NC(=O)[C@H](CC(N)=O)NC(=O)[C@H](CC(=O)O)NC(=O)[C@H](CCCCN)NC(=O)[C@H](CC(=O)O)NC(=O)[C@H](CCCCN)NC(=O)[C@H](CC(=O)O)NC(=O)[C@@H](NC(=O)[C@H](Cc1ccccc1)NC(=O)[C@H](CCC(N)=O)NC(=O)[C@H](Cc1ccc(O)cc1)NC(=O)[C@@H](NC(=O)[C@H](CCC(N)=O)NC(=O)[C@H](Cc1c[nH]cn1)NC(=O)[C@H](C)NC(=O)[C@H](CC(C)C)NC(=O)[C@H](CCCNC(=N)N)NC(=O)[C@H](CCC(N)=O)NC(=O)[C@@H](NC(=O)[C@@H](NC(=O)[C@@H]1CSSC[C@H](NC(=O)CN)C(=O)N[C@@H](CCCNC(=N)N)C(=O)N[C@@H](Cc2ccccc2)C(=O)NCC(=O)N[C@@H]([C@@H](C)O)C(=O)N1)[C@@H](C)O)C(C)C)[C@@H](C)CC)[C@@H](C)O)C(C)C)[C@@H](C)O)C(=O)NCC(=O)N1CCC[C@H]1C(=O)N[C@@H](CCC(N)=O)C(=O)NCC(=O)N[C@@H](Cc1ccc(O)cc1)C(N)=O [compound 379] (H-GCRFGTCTVQRLAHQIYQFTDKDKDNVAPRTNIGPQGY-NH2; disulfide 2-7) | 0.029
7 | CC[C@H](C)[C@H](NC(=O)[C@H](CCC(N)=O)NC(=O)[C@H](Cc1c[nH]cn1)NC(=O)[C@H](C)NC(=O)[C@H](CC(C)C)NC(=O)[C@H](CCCNC(=N)N)NC(=O)[C@H](CCC(N)=O)NC(=O)[C@@H](NC(=O)[C@@H](NC(=O)[C@@H]1CSSC[C@H](NC(=O)CNC(=O)CC[C@H](NC(=O)CCCCCCCCCCCCCCCCCCC(=O)O)C(=O)O)C(=O)N[C@@H](CCCNC(=N)N)C(=O)N[C@@H](Cc2ccccc2)C(=O)N[C@@H](C)C(=O)N[C@@H]([C@@H](C)O)C(=O)N1)[C@@H](C)O)C(C)C)C(=O)N[C@@H](Cc1ccc(O)cc1)C(=O)N[C@@H](CCC(N)=O)C(=O)N[C@@H](Cc1ccccc1)C(=O)N[C@H](C(=O)N[C@@H](CC(=O)O)C(=O)N[C@@H](CCCCN)C(=O)N[C@@H](CC(=O)O)C(=O)N[C@@H](CCCCN)C(=O)N[C@@H](CC(=O)O)C(=O)N[C@@H](CC(N)=O)C(=O)N[C@H](C(=O)N[C@@H](C)C(=O)N1CCC[C@H]1C(=O)N[C@@H](CCCNC(=N)N)C(=O)N[C@H](C(=O)N[C@@H](CCCCN)C(=O)N[C@H](C(=O)NCC(=O)N1CCC[C@H]1C(=O)N[C@@H](CCC(N)=O)C(=O)NCC(=O)N[C@@H](Cc1ccc(O)cc1)C(N)=O)C(C)C)[C@@H](C)O)C(C)C)[C@@H](C)O [compound 380] ({C20 diacid-γGlu}-GCRFATCTVQRLAHQIYQFTDKDKDNVAPRTKVGPQGY-NH2; disulfide 2-7) | 0.031
